Measured values reported in ChEMBL document CHEMBL4411296, “Design and development of Isatin-triazole hydrazones as potential inhibitors of microtubule affinity-regulating kinase 4 for the therapeutic management of cell proliferation and metastasis” (Eur J Med Chem, 2019).

How the values were obtained:
Assay type in all cases: functional
EKVX = assay: Growth inhibition of human EKVX cells assessed as cell growth at 10 uM after 48 hrs by sulforhodamine B assay relative to control; details: read-out: Activity
SF-268 = assay: Growth inhibition of human SF268 cells assessed as cell growth at 10 uM after 48 hrs by sulforhodamine B assay relative to control; details: SF-268, 48 h, read-out: Activity
SNB-19 = assay: Growth inhibition of human SNB19 cells assessed as cell growth at 10 uM after 48 hrs by sulforhodamine B assay relative to control; details: SNB-19, 48 h, read-out: Activity
PC-3 = assay: Growth inhibition of human PC3 cells assessed as cell growth at 10 uM after 48 hrs by sulforhodamine B assay relative to control; details: PC-3, 48 h, read-out: Activity
MDA-MB-435 = assay: Growth inhibition of human MDA-MB-435 cells assessed as cell growth at 10 uM after 48 hrs by sulforhodamine B assay relative to control; details: MDA-MB-435, 48 h, read-out: Activity
HOP-62 = assay: Growth inhibition of human HOP62 cells assessed as cell growth at 10 uM after 48 hrs by sulforhodamine B assay relative to control; details: HOP-62, 48 h, read-out: Activity
HT-29 = assay: Growth inhibition of human HT-29 cells assessed as cell growth at 10 uM after 48 hrs by sulforhodamine B assay relative to control; details: HT-29, 48 h, read-out: Activity
MDA-MB-231 = assay: Growth inhibition of human MDA-MB-231 cells assessed as cell growth at 10 uM after 48 hrs by sulforhodamine B assay relative to control; details: MDA-MB-231, 48 h, read-out: Activity
HL-60(TB) = assay: Growth inhibition of human HL-60(TB) cells assessed as cell growth at 10 uM after 48 hrs by sulforhodamine B assay relative to control; details: HL-60, 48 h, read-out: Activity
Hs-578T = assay: Growth inhibition of human Hs 578T cells assessed as cell growth at 10 uM after 48 hrs by sulforhodamine B assay relative to control; details: read-out: Activity
KM12 = assay: Growth inhibition of human KM12 cells assessed as cell growth at 10 uM after 48 hrs by sulforhodamine B assay relative to control; details: KM12, 48 h, read-out: Activity
A549 = assay: Growth inhibition of human A549/ATCC cells assessed as cell growth at 10 uM after 48 hrs by sulforhodamine B assay relative to control; details: A549, 48 h, read-out: Activity
Malme-3M = assay: Growth inhibition of human MALME-3M cells assessed as cell growth at 10 uM after 48 hrs by sulforhodamine B assay relative to control; details: read-out: Activity
CAKI-1 = assay: Growth inhibition of human Caki1 cells assessed as cell growth at 10 uM after 48 hrs by sulforhodamine B assay relative to control; details: CAKI-1, 48 h, read-out: Activity
SF-539 = assay: Growth inhibition of human SF539 cells assessed as cell growth at 10 uM after 48 hrs by sulforhodamine B assay relative to control; details: SF-539, 48 h, read-out: Activity
RPMI-8226 = assay: Growth inhibition of human RPMI8226 cells assessed as cell growth at 10 uM after 48 hrs by sulforhodamine B assay relative to control; details: RPMI-8226, 48 h, read-out: Activity
MOLT-4 = assay: Growth inhibition of human MOLT4 cells assessed as cell growth at 10 uM after 48 hrs by sulforhodamine B assay relative to control; details: MOLT-4, 48 h, read-out: Activity
NCI-H460 = assay: Growth inhibition of human NCI-H460 cells assessed as cell growth at 10 uM after 48 hrs by sulforhodamine B assay relative to control; details: NCI-H460, 48 h, read-out: Activity
ACHN = assay: Growth inhibition of human ACHN cells assessed as cell growth at 10 uM after 48 hrs by sulforhodamine B assay relative to control; details: read-out: Activity
OVCAR-8 = assay: Growth inhibition of human OVCAR8 cells assessed as cell growth at 10 uM after 48 hrs by sulforhodamine B assay relative to control; details: OVCAR-8, 48 h, read-out: Activity
M14 = assay: Growth inhibition of human M14 cells assessed as cell growth at 10 uM after 48 hrs by sulforhodamine B assay relative to control; details: M14, 48 h, read-out: Activity
HCT-116 = assay: Growth inhibition of human HCT116 cells assessed as cell growth at 10 uM after 48 hrs by sulforhodamine B assay relative to control; details: HCT-116, 48 h, read-out: Activity
SK-MEL-5 = assay: Growth inhibition of human SK-MEL-5 cells assessed as cell growth at 10 uM after 48 hrs by sulforhodamine B assay relative to control; details: SK-MEL-5, 48 h, read-out: Activity
SK-MEL-2 = assay: Growth inhibition of human SK-MEL-2 cells assessed as cell growth at 10 uM after 48 hrs by sulforhodamine B assay relative to control; details: SK-MEL-2, 48 h, read-out: Activity
LOX IMVI = assay: Growth inhibition of human LOXIMVI cells assessed as cell growth at 10 uM after 48 hrs by sulforhodamine B assay relative to control; details: read-out: Activity
HCT-15 = assay: Growth inhibition of human HCT15 cells assessed as cell growth at 10 uM after 48 hrs by sulforhodamine B assay relative to control; details: HCT-15, 48 h, read-out: Activity
TK-10 = assay: Growth inhibition of human TK10 cells assessed as cell growth at 10 uM after 48 hrs by sulforhodamine B assay relative to control; details: TK-10, 48 h, read-out: Activity
RXF 393 = assay: Growth inhibition of human RXF393 cells assessed as cell growth at 10 uM after 48 hrs by sulforhodamine B assay relative to control; details: RXF 393, 48 h, read-out: Activity
OVCAR-5 = assay: Growth inhibition of human OVCAR5 cells assessed as cell growth at 10 uM after 48 hrs by sulforhodamine B assay relative to control; details: OVCAR-5, 48 h, read-out: Activity
IGROV-1 = assay: Growth inhibition of human IGROV1 cells assessed as cell growth at 10 uM after 48 hrs by sulforhodamine B assay relative to control; details: IGROV-1, 48 h, read-out: Activity
UACC-62 = assay: Growth inhibition of human UACC62 cells assessed as cell growth at 10 uM after 48 hrs by sulforhodamine B assay relative to control; details: UACC-62, 48 h, read-out: Activity
NCI/ADR-RES = assay: Growth inhibition of human NCI/ADR-RES cells assessed as cell growth at 10 uM after 48 hrs by sulforhodamine B assay relative to control; details: read-out: Activity
SN12C = assay: Growth inhibition of human SN12C cells assessed as cell growth at 10 uM after 48 hrs by sulforhodamine B assay relative to control; details: read-out: Activity
HCC 2998 = assay: Growth inhibition of human HCC2998 cells assessed as cell growth at 10 uM after 48 hrs by sulforhodamine B assay relative to control; details: HCC 2998, 48 h, read-out: Activity

Structure (SMILES) | growth at 10 µM (EKVX) | growth at 10 µM (SF-268) | growth at 10 µM (SNB-19) | growth at 10 µM (PC-3) | growth at 10 µM (MDA-MB-435) | growth at 10 µM (HOP-62) | growth at 10 µM (HT-29) | growth at 10 µM (MDA-MB-231) | growth at 10 µM (HL-60(TB)) | growth at 10 µM (Hs-578T) | growth at 10 µM (KM12) | growth at 10 µM (A549) | growth at 10 µM (Malme-3M) | growth at 10 µM (CAKI-1) | growth at 10 µM (SF-539) | growth at 10 µM (RPMI-8226) | growth at 10 µM (MOLT-4) | growth at 10 µM (NCI-H460) | growth at 10 µM (ACHN) | growth at 10 µM (OVCAR-8) | further results
COc1ccc(Cn2cc(C(=O)N/N=C3/C(=O)Nc4ccc(Cl)cc43)nn2)cc1 | 106% | 98.9% | 98.5% | 94.9% | 104% | 112% | 93.7% | 113% | 93.2% | 112% | 97.7% | 103% | 95% | 101% | 106% | 109% | 90.6% | 102% | 107% | 105% | growth at 10 µM (M14): 110%; growth at 10 µM (HCT-116): 107%; growth at 10 µM (SK-MEL-5): 96.7%; growth at 10 µM (SK-MEL-2): 99%; growth at 10 µM (LOX IMVI): 108%; growth at 10 µM (HCT-15): 109%; growth at 10 µM (TK-10): 84.8%; growth at 10 µM (RXF 393): 103%; growth at 10 µM (OVCAR-5): 114%; growth at 10 µM (IGROV-1): 106%; growth at 10 µM (UACC-62): 101%; growth at 10 µM (NCI/ADR-RES): 115%; growth at 10 µM (SN12C): 101%; growth at 10 µM (HCC 2998): 107%
COc1ccc(Cn2cc(C(=O)N/N=C3/C(=O)Nc4c(Cl)cccc43)nn2)cc1 | 102% | 94.7% | 93.6% | 96.7% | 101% | 110% | 97% | 98.5% | 97.3% | 97.5% | 107% | 102% | 99.7% | 94.4% | 108% | 106% | 84.8% | 99.7% | 111% | 97.4% | growth at 10 µM (M14): 106%; growth at 10 µM (HCT-116): 91.6%; growth at 10 µM (SK-MEL-5): 101%; growth at 10 µM (SK-MEL-2): 93.2%; growth at 10 µM (LOX IMVI): 93.8%; growth at 10 µM (HCT-15): 107%; growth at 10 µM (TK-10): 106%; growth at 10 µM (RXF 393): 109%; growth at 10 µM (OVCAR-5): 123%; growth at 10 µM (IGROV-1): 103%; growth at 10 µM (UACC-62): 102%; growth at 10 µM (NCI/ADR-RES): 105%; growth at 10 µM (SN12C): 95.8%; growth at 10 µM (HCC 2998): 99.3%
COc1ccc(Cn2cc(C(=O)N/N=C3/C(=O)Nc4ccc(C)cc43)nn2)cc1 | 108% | 94.1% | 98% | 97.3% | 101% | 112% | 87.1% | 110% | 84.8% | 106% | 95.4% | 97.9% | 106% | 95.4% | 103% | 105% | 87.8% | 105% | 111% | 104% | growth at 10 µM (M14): 109%; growth at 10 µM (HCT-116): 122%; growth at 10 µM (SK-MEL-5): 91.7%; growth at 10 µM (SK-MEL-2): 92.9%; growth at 10 µM (LOX IMVI): 102%; growth at 10 µM (HCT-15): 111%; growth at 10 µM (TK-10): 94.6%; growth at 10 µM (RXF 393): 117%; growth at 10 µM (OVCAR-5): 105%; growth at 10 µM (IGROV-1): 109%; growth at 10 µM (UACC-62): 94.6%; growth at 10 µM (NCI/ADR-RES): 100%; growth at 10 µM (SN12C): 98.4%; growth at 10 µM (HCC 2998): 99.9%
